Activity calls are given as the source filed them.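 The calls were made as follows: active = fitted curve reaches 40% activation below the top valid tested dose, in every test run; inconclusive = test runs disagree on the call; inactive = the rest, including effects opposite to the expected direction.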

A short description of one experiment: endothelial E-selectin upregulation by compounds – imaging, HUVEC, cherry-picked samples, dose response (AID 977605).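 Also: signal is the share of imaged cells scored positive for E-selectin.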 The following applies: HUVEC E-selectin immunostaining, at 18 µM (top of the series), percent of TNF-alpha response over vehicle.
Regarding `CCC(=O)N1CC[C@@H]2[C@H](CO)Nc3ccc(C#Cc4ccc(F)cc4)cc3[C@@H]21`, the activation is 27.2% (inactive).

The same experiment, now with this note: HUVEC E-selectin immunostaining, at 19.5 µM (top of the series), percent of TNF-alpha response over vehicle.
As for `CN(CC(=O)Nc1cccc(F)c1)CC(=O)N1CCc2ccccc21`, the activation was 0.11% (inactive).

In the case of `Cc1ccc(CNS(=O)(=O)c2ccc(C(F)(F)F)cc2)n1C`, the activation was -0.139% (inactive).

Regarding `C[C@@H]1CN([C@H](C)CO)C(=O)Cc2cc(NC(=O)CCCCCC(=O)Nc3ccccc3N)ccc2O[C@H]1CN(C)C(=O)Nc1ccc2c(c1)OCO2`, the activation was -0.123% (inactive).

For the compound `CS(=O)(=O)N1CCc2cc(S(=O)(=O)NCCNS(=O)(=O)c3ccc4c(c3)CCN4S(C)(=O)=O)ccc21`, the activation is 0.185% (inactive).

As for `COc1ccc(S(=O)(=O)N(C)C[C@H]2Oc3ccc(NS(=O)(=O)c4c(C)noc4C)cc3C(=O)N([C@@H](C)CO)C[C@H]2C)cc1`, the activation is 0.307% (inactive).

Consider `C[C@H](CO)N1C[C@H](C)[C@@H](CN(C)Cc2ccc(C(=O)O)cc2)Oc2ccc(NC(=O)Nc3ccc(F)cc3)cc2CC1=O`, for which the activation is 0.279% (inactive).

In the case of `C[C@@H]1CN([C@@H](C)CO)C(=O)Cc2cc(NC(=O)NC3CCCCC3)ccc2O[C@H]1CN(C)C(=O)Nc1ccc2c(c1)OCO2`, the activation was 16.7% (inactive).

For `C[C@@H]1CN([C@H](C)CO)C(=O)c2cccc(NC(=O)C3CC3)c2O[C@@H]1CN(C)CC1CC1`, the activation was -0.106% (inactive).

For the compound `CCC(=O)N(C)C[C@H]1Oc2ncc(Br)cc2C(=O)N([C@@H](C)CO)C[C@@H]1C`, the activation is 0.243% (inactive).

Turning to `C[C@@H]1CN([C@H](C)CO)C(=O)Cc2cc(NC(=O)Cn3cnnn3)ccc2O[C@H]1CN(C)C(=O)Nc1ccc(C(F)(F)F)cc1`, the activation is 0.232% (inactive).

For `CC(C)CC#Cc1ccc2c(c1)O[C@H](CN(C)C(=O)c1ccccc1)[C@H](C)CN([C@@H](C)CO)S2(=O)=O`, the activation is -0.183% (inactive).

Consider `C[C@@H]1CN([C@@H](C)CO)C(=O)c2cc(NS(=O)(=O)c3cccs3)ccc2O[C@@H]1CN(C)S(C)(=O)=O`, for which the activation was -0.005% (inactive).

Consider `N#CC1(NC(=O)CN2C(=O)c3ccccc3C2=O)CCCCC1`, for which the activation is 16.1% (inactive).

As to `COc1ccc(C#Cc2ccc3c(c2)O[C@@H](CN(C)C(=O)Nc2cccc(OC)c2)[C@H](C)CN([C@@H](C)CO)S3(=O)=O)cc1`, the activation is 4.46% (inactive).

`OC(CSc1ccc(F)cc1)CN1CCN(c2ccccc2)CC1` (stereo not given): the activation is -0.165% (inactive).

Regarding `Cc1[nH]c(C)c(S(=O)(=O)N2CCCCC2)c1C(=O)N1CCCC1`, the activation was -0.044% (inactive).

Take `COc1ccc(CN(C)C[C@H]2Oc3ccc(NC(=O)c4ccncc4)cc3C(=O)N([C@H](C)CO)C[C@@H]2C)cc1`: the activation was 0.118% (inactive).

In the case of `C[C@@H]1CN([C@@H](C)CO)C(=O)c2cc(NC(=O)Cc3cn(C)c4ccccc34)ccc2O[C@H]1CN(C)Cc1ccc2c(c1)OCO2`, the activation is -0.066% (inactive).

In the case of `C[C@H](CO)N1C[C@H](C)[C@H](CN(C)Cc2ccc(C(=O)Nc3ccccc3N)cc2)Oc2ccc(NS(=O)(=O)c3cccs3)cc2CC1=O`, the activation is 6.58% (inactive).

Take `CC(C)NC(=O)Nc1cccc2c1O[C@@H](CN(C)Cc1ccc(C(F)(F)F)cc1)[C@H](C)CN([C@H](C)CO)C2=O`: the activation is -0.054% (inactive).

`C[C@@H]1CN([C@@H](C)CO)C(=O)Cc2cc(NC(=O)Cn3cnnn3)ccc2O[C@H]1CN(C)C(=O)Nc1ccc(F)cc1`: the activation is 0.031% (inactive).

The experiment is the same for the next values; noted with them: HUVEC E-selectin immunostaining, at 21 µM (top of the series), percent of TNF-alpha response over vehicle.
Take `C[C@H]1CN([C@@H](C)CO)C(=O)c2cccc(NS(=O)(=O)c3cn(C)cn3)c2O[C@@H]1CN(C)C(=O)Nc1ccc(F)cc1`: the activation was -0.136% (inactive).

For `C[C@H]1CN([C@@H](C)CO)C(=O)Cc2cc(NC(=O)CCCCCC(=O)Nc3ccccc3N)ccc2O[C@H]1CN(C)Cc1ccc(Cl)c(Cl)c1`, the activation was 5.06% (inactive).

Turning to `C[C@@H]1CN([C@H](C)CO)C(=O)c2cc(NC(=O)Nc3ccc4c(c3)OCO4)ccc2O[C@H]1CN(C)S(=O)(=O)c1ccccc1`, the activation was -0.095% (inactive).

The record behind these values is PubChem BioAssay AID977605 (Broad Institute, 2014).
